Here are results for 71 compounds from patent publication US8211935B2, “Heterocyclic derivatives for modulation of calcium channels” (Vertex Pharmaceuticals Incorporated, priority 2004, dated 2012).

A value given as a limit tells only on which side of the number the result lay.

The term IC50 denotes the midpoint of a concentration-inhibition curve.

The target of the first test is T1, CaV2.2 (Homo sapiens, UniProt Q00975).
T1 construct: expressed in transfected cells; host or cells: HEK293
T1 sequence (Q00975 whole entry): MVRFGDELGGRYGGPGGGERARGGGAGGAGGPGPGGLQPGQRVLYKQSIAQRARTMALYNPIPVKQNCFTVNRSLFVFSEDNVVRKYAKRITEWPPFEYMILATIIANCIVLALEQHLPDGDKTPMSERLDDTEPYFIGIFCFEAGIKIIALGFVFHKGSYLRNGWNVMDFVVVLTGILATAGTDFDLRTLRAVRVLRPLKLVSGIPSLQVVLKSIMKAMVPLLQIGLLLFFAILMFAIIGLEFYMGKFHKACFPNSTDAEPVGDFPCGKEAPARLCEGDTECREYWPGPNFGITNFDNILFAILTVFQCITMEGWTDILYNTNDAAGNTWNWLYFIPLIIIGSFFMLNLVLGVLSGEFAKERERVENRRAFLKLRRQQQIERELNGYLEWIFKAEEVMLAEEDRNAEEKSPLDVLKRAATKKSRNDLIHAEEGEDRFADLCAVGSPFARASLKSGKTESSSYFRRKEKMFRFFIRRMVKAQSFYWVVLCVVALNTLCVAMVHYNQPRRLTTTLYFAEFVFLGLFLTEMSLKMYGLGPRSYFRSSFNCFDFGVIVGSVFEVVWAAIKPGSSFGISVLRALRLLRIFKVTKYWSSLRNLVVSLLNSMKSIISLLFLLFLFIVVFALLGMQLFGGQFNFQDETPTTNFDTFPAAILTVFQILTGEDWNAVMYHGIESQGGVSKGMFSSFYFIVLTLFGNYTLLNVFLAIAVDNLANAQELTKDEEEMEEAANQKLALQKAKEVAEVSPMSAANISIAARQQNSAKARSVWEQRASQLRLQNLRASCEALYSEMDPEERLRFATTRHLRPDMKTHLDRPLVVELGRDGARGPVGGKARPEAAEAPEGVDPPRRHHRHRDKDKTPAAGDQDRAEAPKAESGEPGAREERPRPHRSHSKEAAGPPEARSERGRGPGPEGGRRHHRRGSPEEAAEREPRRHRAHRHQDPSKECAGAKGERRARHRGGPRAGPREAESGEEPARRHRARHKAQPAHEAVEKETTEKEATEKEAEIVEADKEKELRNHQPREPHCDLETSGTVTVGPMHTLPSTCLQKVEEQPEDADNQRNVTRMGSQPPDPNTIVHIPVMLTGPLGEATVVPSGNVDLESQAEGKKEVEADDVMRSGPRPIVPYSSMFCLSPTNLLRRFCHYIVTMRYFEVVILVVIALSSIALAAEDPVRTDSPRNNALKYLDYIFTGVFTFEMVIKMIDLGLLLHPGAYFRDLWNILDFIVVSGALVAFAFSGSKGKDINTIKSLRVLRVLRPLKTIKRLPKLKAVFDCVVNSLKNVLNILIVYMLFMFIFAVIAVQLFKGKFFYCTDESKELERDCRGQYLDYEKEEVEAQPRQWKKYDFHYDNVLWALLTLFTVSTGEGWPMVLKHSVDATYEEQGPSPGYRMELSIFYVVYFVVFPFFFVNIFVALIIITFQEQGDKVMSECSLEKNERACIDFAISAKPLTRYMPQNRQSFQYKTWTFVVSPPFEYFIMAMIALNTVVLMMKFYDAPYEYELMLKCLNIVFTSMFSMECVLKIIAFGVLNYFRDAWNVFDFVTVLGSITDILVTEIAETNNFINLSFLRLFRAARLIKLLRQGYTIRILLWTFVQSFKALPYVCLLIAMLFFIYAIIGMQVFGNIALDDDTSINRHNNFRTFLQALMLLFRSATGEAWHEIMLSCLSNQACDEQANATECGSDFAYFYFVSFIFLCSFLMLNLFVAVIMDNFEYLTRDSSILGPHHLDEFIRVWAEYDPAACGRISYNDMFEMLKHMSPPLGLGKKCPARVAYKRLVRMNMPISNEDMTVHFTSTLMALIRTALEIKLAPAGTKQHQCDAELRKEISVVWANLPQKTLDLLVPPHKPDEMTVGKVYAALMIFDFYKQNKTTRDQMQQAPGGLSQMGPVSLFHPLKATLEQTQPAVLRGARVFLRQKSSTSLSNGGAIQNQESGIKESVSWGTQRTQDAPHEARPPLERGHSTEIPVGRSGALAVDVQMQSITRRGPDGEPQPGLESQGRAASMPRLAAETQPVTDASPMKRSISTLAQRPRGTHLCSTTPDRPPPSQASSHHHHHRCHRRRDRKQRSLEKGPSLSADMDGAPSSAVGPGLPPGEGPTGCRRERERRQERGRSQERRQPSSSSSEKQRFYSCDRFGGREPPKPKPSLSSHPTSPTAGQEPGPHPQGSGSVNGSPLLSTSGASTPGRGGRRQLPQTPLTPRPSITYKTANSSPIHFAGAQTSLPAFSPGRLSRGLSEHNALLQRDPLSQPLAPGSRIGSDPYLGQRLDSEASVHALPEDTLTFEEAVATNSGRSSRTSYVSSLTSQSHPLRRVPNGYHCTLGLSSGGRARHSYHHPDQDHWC
T1 sequence (P54284 whole entry partner): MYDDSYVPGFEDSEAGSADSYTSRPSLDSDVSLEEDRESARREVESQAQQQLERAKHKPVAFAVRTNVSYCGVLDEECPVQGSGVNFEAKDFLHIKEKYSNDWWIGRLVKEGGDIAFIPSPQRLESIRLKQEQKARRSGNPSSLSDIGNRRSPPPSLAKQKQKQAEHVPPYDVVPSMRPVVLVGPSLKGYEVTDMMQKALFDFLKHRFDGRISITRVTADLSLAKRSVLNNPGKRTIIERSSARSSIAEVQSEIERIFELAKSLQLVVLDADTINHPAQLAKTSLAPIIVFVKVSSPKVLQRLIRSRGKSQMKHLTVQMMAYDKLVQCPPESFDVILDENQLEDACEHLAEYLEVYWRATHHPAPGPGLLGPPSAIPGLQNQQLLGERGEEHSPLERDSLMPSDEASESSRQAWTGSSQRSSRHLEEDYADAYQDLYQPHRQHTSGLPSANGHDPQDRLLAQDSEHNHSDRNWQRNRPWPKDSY
T1 sequence (P54289 25-946 partner limits assumed): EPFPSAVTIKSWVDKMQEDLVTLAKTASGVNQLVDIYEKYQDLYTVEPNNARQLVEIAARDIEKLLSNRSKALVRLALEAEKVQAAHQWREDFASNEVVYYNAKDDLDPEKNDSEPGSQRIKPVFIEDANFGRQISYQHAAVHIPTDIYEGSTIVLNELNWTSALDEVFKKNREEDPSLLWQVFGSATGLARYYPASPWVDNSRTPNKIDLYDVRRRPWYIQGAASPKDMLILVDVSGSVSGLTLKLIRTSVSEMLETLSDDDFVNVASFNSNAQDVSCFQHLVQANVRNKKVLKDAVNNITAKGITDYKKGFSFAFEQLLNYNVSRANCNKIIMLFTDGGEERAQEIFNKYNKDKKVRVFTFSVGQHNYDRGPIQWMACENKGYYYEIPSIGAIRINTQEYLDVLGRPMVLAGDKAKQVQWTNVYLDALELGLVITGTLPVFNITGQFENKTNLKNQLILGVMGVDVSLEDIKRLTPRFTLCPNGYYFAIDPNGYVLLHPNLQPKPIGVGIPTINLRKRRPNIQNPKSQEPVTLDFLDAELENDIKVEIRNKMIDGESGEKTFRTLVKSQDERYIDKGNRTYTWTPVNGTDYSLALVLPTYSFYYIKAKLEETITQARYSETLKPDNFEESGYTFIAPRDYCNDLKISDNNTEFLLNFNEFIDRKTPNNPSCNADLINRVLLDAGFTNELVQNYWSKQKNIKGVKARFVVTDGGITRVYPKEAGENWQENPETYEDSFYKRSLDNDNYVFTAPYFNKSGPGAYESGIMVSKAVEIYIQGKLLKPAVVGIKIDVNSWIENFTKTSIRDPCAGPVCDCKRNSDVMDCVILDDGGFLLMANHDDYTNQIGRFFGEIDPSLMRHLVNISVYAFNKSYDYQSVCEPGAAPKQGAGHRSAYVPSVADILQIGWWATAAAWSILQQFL
T1 sequence (P54289 947-1103 partner limits assumed): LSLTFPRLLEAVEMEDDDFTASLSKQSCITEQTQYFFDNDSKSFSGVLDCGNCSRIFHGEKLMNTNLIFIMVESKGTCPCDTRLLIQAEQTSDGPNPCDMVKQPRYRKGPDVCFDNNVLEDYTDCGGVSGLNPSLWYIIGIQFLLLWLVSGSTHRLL
In words: VIPR optical membrane potential assay with electrical stimulation. The format is cell-based.
Conditions: not given
The method, boiled down:
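HEK293 cells stably expressing CaV2.2, stained with CC2-DMPE (10 μM final) and oxonol voltage-sensitive dyes, compound added with BaCl2. Membrane potential response evoked by 3-5 s electrical stimulation. Read as background-subtracted 460/580 nm emission ratio, response R=Rf/Ri, normalized to mibefradil positive and no-drug negative controls.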
`Cc1c(C(=O)N2CCC3(CC2)OCCO3)[nH]c2ccc(S(=O)(=O)N3CCCCCC3)cc12` [compound 232] returned an IC50 of 5 to 20 µM.

With `O=C(c1cc2cc(S(=O)(=O)N3CCCCCC3)ccc2[nH]1)N1CCC2(CC1)OCCO2` [compound 252], the IC50 lay within 5 to 20 µM.

The test is the same for the next values; noted with them: Table 3, biological assay data; read-out: IC50.
Regarding `CC1CCCN(C(=O)c2cc3cc(S(=O)(=O)N4CC(C)CC(C)C4)ccc3o2)C1` (centres unmarked) [compound 406], the 50% inhibitory concentration (IC50) is less than 5 µM.

Turning to `Cc1c(C(=O)N(C)C)oc2ccc(S(=O)(=O)N3CCCCC3)cc12` [compound 277], the half-inhibitory concentration (IC50) was less than 20 µM.

As to `O=C(NCCc1ccccc1)c1cc2cc(S(=O)(=O)N3CCCCCC3)ccc2o1` [compound 48], the IC50 is less than 5 µM.

Take `CC1CC(C)CN(S(=O)(=O)c2ccc3c(c2)cc(C(=O)N2CCCCC2)n3S(=O)(=O)c2ccc(F)cc2)C1` (centres unmarked) [compound 107]: the IC50 is less than 5 µM.

Regarding `CC1CCN(S(=O)(=O)c2ccc3[nH]c(C(=O)NCC4CCOCC4)cc3c2)CC1` [compound 345], the IC50 is less than 5 µM.

As for `Cc1c(C(=O)N(C)Cc2ccccc2)oc2ccc(S(=O)(=O)N3CCCCC3)cc12` [compound 93], the IC50 was less than 5 µM.

As to `Cc1c(C(=O)N2CCN(C)CC2)oc2ccc(S(=O)(=O)N3CC(C)CC(C)C3)cc12` (centres unmarked) [compound 193], the half-maximal inhibitory concentration (IC50) lay in the range of 5 to 20 µM.

Take `Cc1c(C(=O)NC2CCCCC2C)oc2ccc(S(=O)(=O)N3CCCC3)cc12` (centres unmarked) [compound 132]: the IC50 is less than 20 µM.

As to `CCN(CC)C(=O)c1cc2cc(S(=O)(=O)N3CCCCCC3)ccc2o1` [compound 1], the IC50 is 5 to 20 µM.

Consider `Cc1c(C(=O)N2CCCCC2C)oc2ccc(S(=O)(=O)N3CC(C)CC(C)C3)cc12` (centres unmarked) [compound 153], for which the IC50 is less than 5 µM.

For `Cc1c(C(=O)NC2CCCC2)n(C)c2ccc(S(=O)(=O)N3CCC(C)CC3)cc12` [compound 174], the IC50 is less than 5 µM.

`O=C(NC1CCCCC1)c1cc2cc(S(=O)(=O)N3CCCCCC3)ccc2[nH]1` [compound 296]: the IC50 was less than 20 µM.

On to `Cc1c(C(=O)NCCc2ccccc2)[nH]c2ccc(S(=O)(=O)N3CCC(C)CC3)cc12` [compound 381], for which the IC50 was less than 5 µM.

As for `CC1CCN(C(=O)c2cc3cc(S(=O)(=O)N4CC(C)CC(C)C4)ccc3[nH]2)CC1` (centres unmarked) [compound 194], the IC50 was less than 5 µM.

Take `Cc1c(C(=O)NCc2ccccc2)[nH]c2ccc(S(=O)(=O)N3CC(C)CC(C)C3)cc12` (centres unmarked) [compound 283]: the IC50 was less than 5 µM.

On to `CNC(=O)c1cc2cc(S(=O)(=O)N3CCCCCC3)ccc2o1` [compound 295], for which the IC50 lay within 5 to 20 µM.

On to `CC1CCN(S(=O)(=O)c2ccc3[nH]c(CNC4CC4)cc3c2)CC1` [compound 108], for which the IC50 is less than 5 µM.

For `CCCCN(C)C(=O)c1cc2cc(S(=O)(=O)N3CCCCCC3)ccc2[nH]1` [compound 422], the IC50 was less than 5 µM.

As for `CCCN(CC1CC1)C(=O)c1cc2cc(S(=O)(=O)N3CC(C)CC(C)C3)ccc2[nH]1` (centres unmarked) [compound 254], the IC50 is less than 5 µM.

As to `CC1CC(C)CN(S(=O)(=O)c2ccc3[nH]c(C(=O)N4CCCCCC4)cc3c2)C1` (centres unmarked) [compound 126], the IC50 was less than 5 µM.

With `CC1CC(C)CN(S(=O)(=O)c2ccc3c(c2)cc(C(=O)N(C)C)n3C)C1` (centres unmarked) [compound 461], the IC50 is less than 5 µM.

For `Cc1c(C(=O)NCC2CCCO2)oc2ccc(S(=O)(=O)N3CCCCC3)cc12` (centres unmarked) [compound 352], the half-maximal inhibitory concentration (IC50) lay in the range of 5 to 20 µM.

For `Cc1c(C(=O)N(C)Cc2ccccc2)[nH]c2ccc(S(=O)(=O)N3CC(C)CC(C)C3)cc12` (centres unmarked) [compound 373], the IC50 is less than 5 µM.

For `Cc1c(C(=O)NC2CCCC2)oc2ccc(S(=O)(=O)N3CCCC(C)C3)cc12` (centres unmarked) [compound 177], the IC50 is less than 5 µM.

As to `CC1CC(C)CN(S(=O)(=O)c2ccc3[nH]c(C(=O)NCCC4CCOCC4)cc3c2)C1` (centres unmarked) [compound 405], the IC50 was less than 5 µM.

Take `COc1ccccc1CNC(=O)c1oc2ccc(S(=O)(=O)N3CCCC3)cc2c1C` [compound 375]: the IC50 was 5 to 20 µM.

Regarding `Cc1c(C(=O)NCCCN2CCCC2=O)oc2ccc(S(=O)(=O)N3CC(C)CC(C)C3)cc12` (centres unmarked) [compound 134], the IC50 fell in the range of 5 to 20 µM.

Turning to `CC1CCN(S(=O)(=O)c2ccc3[nH]c(C(=O)NCCc4ccccc4)cc3c2)CC1` [compound 340], the concentration for half-maximal inhibition (IC50) was less than 5 µM.

Turning to `O=C(c1cc2cc(S(=O)(=O)N3CCCCCC3)ccc2[nH]1)N1CCCC1` [compound 272], the IC50 is less than 20 µM.

Regarding `CCCS(=O)(=O)n1c(C(=O)N2CCCCC2)cc2cc(S(=O)(=O)N3CC(C)CC(C)C3)ccc21` (centres unmarked) [compound 387], the IC50 is less than 5 µM.

For the compound `CC1CCN(S(=O)(=O)c2ccc3oc(C(=O)NC4CCCCC4)cc3c2)CC1` [compound 219], the IC50 was in the range of 5 to 20 µM.

On to `Cc1c(C(=O)NC(C)C)[nH]c2ccc(S(=O)(=O)N3CC(C)CC(C)C3)cc12` (centres unmarked) [compound 450], for which the concentration for half-maximal inhibition (IC50) is 5 to 20 µM.

On to `CCN(CC)S(=O)(=O)c1ccc2oc(C(=O)N(C)Cc3ccccc3)c(C)c2c1` [compound 308], for which the half-inhibitory concentration (IC50) is less than 5 µM.

As to `Cc1c(C(=O)NC2CC2)oc2ccc(S(=O)(=O)NCCN3CCCCC3)cc12` [compound 25], the IC50 was less than 20 µM.

For the compound `CC1CC(C)CN(S(=O)(=O)c2ccc3c(c2)cc(C(=O)N2CCN(C)CC2)n3S(=O)(=O)c2ccccc2)C1` (centres unmarked) [compound 419], the IC50 was in the range of 5 to 20 µM.

Consider `Cc1c(C(=O)N2CCCC2)oc2ccc(S(=O)(=O)N3CCCC(C)C3)cc12` (centres unmarked) [compound 178], for which the IC50 was 5 to 20 µM.

On to `CC1CCN(S(=O)(=O)c2ccc3oc(C(=O)N4CCCCC4C)cc3c2)CC1` (centres unmarked) [compound 208], for which the IC50 was less than 5 µM.

Regarding `CCOC(=O)N1CCN(C(=O)c2cc3cc(S(=O)(=O)N4CCC(C)CC4)ccc3o2)CC1` [compound 158], the 50% inhibitory concentration (IC50) was less than 20 µM.

For the compound `Cc1c(C(=O)NCCC2=CCCCC2)oc2ccc(S(=O)(=O)N3CCC4(CC3)OCCO4)cc12` [compound 320], the concentration for half-maximal inhibition (IC50) lay within 5 to 20 µM.

For the compound `CCN(CC)C(=O)c1[nH]c2ccc(S(=O)(=O)N3CC(C)CC(C)C3)cc2c1C` (centres unmarked) [compound 7], the IC50 is less than 5 µM.

As to `Cc1c(C(=O)NC(C)C)oc2ccc(S(=O)(=O)N3CC(C)CC(C)C3)cc12` (centres unmarked) [compound 21], the IC50 was less than 5 µM.

For the compound `CCN(CC)S(=O)(=O)c1ccc2oc(C(=O)N3CCCC3)c(C)c2c1` [compound 332], the IC50 was less than 20 µM.

As to `CC1CCCCN1C(=O)c1cc2cc(S(=O)(=O)N3CCCCCC3)ccc2[nH]1` (centres unmarked) [compound 437], the IC50 was less than 20 µM.

Take `Cc1c(C(=O)NCC2CCOCC2)oc2ccc(S(=O)(=O)N3CCCC(C)C3)cc12` (centres unmarked) [compound 383]: the IC50 is 5 to 20 µM.

Regarding `CNC(=O)c1[nH]c2ccc(S(=O)(=O)N3CC(C)CC(C)C3)cc2c1C` (centres unmarked) [compound 216], the concentration for half-maximal inhibition (IC50) was less than 5 µM.

Turning to `CCOC(=O)N1CCN(C(=O)c2oc3ccc(S(=O)(=O)N4CCC(C)CC4)cc3c2C)CC1` [compound 88], the IC50 is less than 5 µM.

On to `CCN(CC)C(=O)c1cc2cc(S(=O)(=O)N3CC(C)CC(C)C3)ccc2n1CCCN(C)C` (centres unmarked) [compound 230], for which the half-maximal inhibitory concentration (IC50) was 5 to 20 µM.

For the compound `Cc1c(C(=O)NCCCc2ccccc2)[nH]c2ccc(S(=O)(=O)N3CCC(C)CC3)cc12` [compound 223], the 50% inhibitory concentration (IC50) is less than 5 µM.

With `CCCCN(C)C(=O)c1cc2cc(S(=O)(=O)N3CCCCCC3)ccc2o1` [compound 113], the IC50 was less than 5 µM.

Turning to `Cc1c(C(=O)NCCc2ccccc2)oc2ccc(S(=O)(=O)N3CCCC(C)C3)cc12` (centres unmarked) [compound 445], the IC50 is less than 5 µM.

Consider `CCN(CC)C(=O)c1oc2ccc(S(=O)(=O)N(CC)CC)cc2c1C` [compound 186], for which the IC50 was less than 20 µM.

In the case of `CCOC(=O)C1CCN(C(=O)c2oc3ccc(S(=O)(=O)N4CCC(C)CC4)cc3c2C)CC1` [compound 176], the IC50 is less than 5 µM.

As to `Cc1c(C(=O)NCC2CCCO2)oc2ccc(S(=O)(=O)N3CCCCCC3)cc12` (centres unmarked) [compound 249], the IC50 lay in the range of 5 to 20 µM.

For `CC1CC(C)CN(S(=O)(=O)c2ccc3[nH]c(C(=O)N4CCCCC4C)cc3c2)C1` (centres unmarked) [compound 241], the half-maximal inhibitory concentration (IC50) is less than 5 µM.

Take `Cc1c(C(=O)N2CCCC(C)C2)oc2ccc(S(=O)(=O)N3CCC(C)CC3)cc12` (centres unmarked) [compound 58]: the IC50 was 5 to 20 µM.

On to `Cc1c(C(=O)N(C)Cc2ccccc2)oc2ccc(S(=O)(=O)N3CCOCC3)cc12` [compound 360], for which the concentration for half-maximal inhibition (IC50) is 5 to 20 µM.

As to `Cc1c(C(=O)NCCC2CCOCC2)[nH]c2ccc(S(=O)(=O)N3CC(C)CC(C)C3)cc12` (centres unmarked) [compound 78], the IC50 was 5 to 20 µM.

With `Cc1c(C(=O)NC2CC2)oc2ccc(S(=O)(=O)N3CCCCC3)cc12` [compound 257], the IC50 is less than 20 µM.

As to `Cc1c(C(=O)NCC2CCCCC2)oc2ccc(S(=O)(=O)N3CCC(C)CC3)cc12` [compound 80], the IC50 lay in the range of 5 to 20 µM.

As to `CCN(CC)S(=O)(=O)c1ccc2oc(C(=O)N3CC(C)CC(C)C3)c(C)c2c1` (centres unmarked) [compound 164], the IC50 is less than 5 µM.

On to `CCN(CC)S(=O)(=O)c1ccc2oc(C(=O)N(C(C)C)C(C)C)c(C)c2c1` [compound 278], for which the IC50 was 5 to 20 µM.

In the case of `CC1CCN(S(=O)(=O)c2ccc3[nH]c(CN4CCCCC4)cc3c2)CC1` [compound 11], the IC50 is less than 5 µM.

As to `CCN(CC)C(=O)c1cc2cc(S(=O)(=O)N3CC(C)CC(C)C3)ccc2o1` (centres unmarked) [compound 31], the IC50 was less than 5 µM.

In the case of `CC1CCN(S(=O)(=O)c2ccc3oc(C(=O)N4CCCC4)cc3c2)CC1` [compound 231], the IC50 lay within 5 to 20 µM.

Consider `CCN(CC)S(=O)(=O)c1ccc2oc(C(=O)NC3CCC(C)CC3)c(C)c2c1` (centres unmarked) [compound 215], for which the IC50 was 5 to 20 µM.

Turning to `Cc1c(C(=O)NCc2ccc(F)cc2)oc2ccc(S(=O)(=O)N3CCC(C)CC3)cc12` [compound 154], the half-maximal inhibitory concentration (IC50) was 5 to 20 µM.

`CC1CCN(S(=O)(=O)c2ccc3[nH]c(C(=O)N(C)Cc4ccccc4)cc3c2)CC1` [compound 285]: the IC50 was less than 5 µM.

`Cc1c(C(=O)N2CCCC2)oc2ccc(S(=O)(=O)N3CCCCCC3)cc12` [compound 402]: the IC50 is less than 20 µM.

As for `CC1CC(C)CN(S(=O)(=O)c2ccc3oc(C(=O)NCCc4ccccc4)cc3c2)C1` (centres unmarked) [compound 2], the concentration for half-maximal inhibition (IC50) was less than 5 µM.
